Tests used:
Assay in all cases: drug sensitivity score (DSS) from 5-point dose-response viability curve (DSS (area-under-curve based score)); higher = more sensitive (stronger growth inhibition or killing); extreme values may be limits of the assay
Settings in all cases: exposure time: 72 h; concentration range: 5 concentrations over 10,000-fold range
CAOV3 = system: CAOV3
Summary of the method: (§1)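 Ovarian cancer and normal ovarian cell lines were tested in 384-well plates, with drugs dispensed acoustically (Echo 550) in DMSO or water at five concentrations covering a 10,000-fold range. After 1,500 cells per well were added, plates were incubated for 3 days at 37°C and 5% CO2, and viability was read by CellTiter-Glo luminescence on a PHERAstar FS. Breeze software gave a drug sensitivity score for each cell line and drug, where a higher score means greater sensitivity. A value of zero means no response.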

COV362 = system: COV362
Summary of the method: as §1

OVCAR8 = system: OVCAR8
Summary of the method: as §1

Kuramochi = system: Kuramochi
Summary of the method: as §1

OV90 = system: OV90
Summary of the method: as §1

COV318 = system: COV318
Summary of the method: as §1

HOSE2C = system: HOSE2C
Summary of the method: as §1

HOSE1C = system: HOSE1C
Summary of the method: as §1

JHOS2 = system: JHOS2
Summary of the method: as §1

OVCAR4 = system: OVCAR4
Summary of the method: as §1

Ovsaho = system: Ovsaho
Summary of the method: as §1

OVCAR5 = system: OVCAR5
Summary of the method: as §1

Compound | drug sensitivity score (CAOV3) | drug sensitivity score (COV362) | drug sensitivity score (OVCAR8) | drug sensitivity score (Kuramochi) | drug sensitivity score (OV90) | drug sensitivity score (COV318) | drug sensitivity score (HOSE2C) | drug sensitivity score (HOSE1C) | drug sensitivity score (JHOS2) | drug sensitivity score (OVCAR4) | drug sensitivity score (Ovsaho) | drug sensitivity score (OVCAR5)
CN(C)C1CCN(C(=O)c2ccc(NC(=O)Nc3ccc(-c4nc(N5CCOCC5)nc(N5CCOCC5)n4)cc3)cc2)CC1 [Gedatolisib] | 10 | 4.8 | 7.5 | 11.4 | 15.4 | 3.2 | 13.1 | 17.9 | 7.4 | 14.8 | 13.4 | 12.3
COc1cc2ncnc(Nc3ccc(F)c(Cl)c3)c2cc1OCCCN1CCOCC1 [Gefitinib] | 7.2 | 0.3 | 3.3 | 1.8 | 4 | 0.5 | 0.3 | 0 | 1.6 | 1.9 | 3.8 | 5.6
Nc1ccn([C@@H]2O[C@H](CO)[C@@H](O)C2(F)F)c(=O)n1 [Gemcitabine] | 23.6 | 8.1 | 23.6 | 0 | 13.5 | 3.5 | 6.7 | 8.2 | 12.7 | 0 | 3.3 | 15.5
CCc1nc(C(N)=O)c(Nc2ccc(N3CCC(N4CCN(C)CC4)CC3)c(OC)c2)nc1NC1CCOCC1 [Gilteritinib] | 3.9 | 0.4 | 0.4 | 0.7 | 2.2 | 0.6 | 0 | 0 | 0 | 0.1 | 0 | 4.9
CCN(CC)Cc1ccc2cc(COC(=O)Nc3ccc(C(=O)NO)cc3)ccc2c1 [Givinostat] | 7.3 | 2.2 | 10 | 6.2 | 7.7 | 4.2 | 8.6 | 12.3 | 5.3 | 4.1 | 3.2 | 10.8
CN1CC[C@@H](NC(=O)Nc2ccc(C#N)cc2)C[C@@H]1c1nc2ccccc2[nH]1 [Glasdegib] | 0 | 0 | 0 | 0 | 0 | 0 | 0 | 0 | 0 | 0 | 0 | 0
COCCNCc1ccc(-c2cc3nccc(Oc4ccc(NC(=S)NC(=O)Cc5ccc(F)cc5)cc4F)c3s2)nc1 [Glesatinib] | 0 | 1.6 | 0 | 0 | 0 | 0.1 | 1.9 | 2.9 | 0 | 0 | 0.2 | 1.2
CN1CCN(C2CCN(C(=O)Nc3cc(Oc4ccc(NC(=O)C5(C(=O)Nc6ccc(F)cc6)CC5)c(F)c4)ccn3)CC2)CC1 [Golvatinib] | 0 | 0 | 0 | 0.8 | 1.4 | 0 | 0 | 0 | 0 | 0 | 0 | 0.1
CC(C)C[C@H](NC(=O)[C@@H](COC(C)(C)C)NC(=O)[C@H](Cc1ccc(O)cc1)NC(=O)[C@H](CO)NC(=O)[C@H](Cc1c[nH]c2ccccc12)NC(=O)[C@H](Cc1cnc[nH]1)NC(=O)[C@@H]1CCC(=O)N1)C(=O)N[C@@H](CCCNC(=N)N)C(=O)N1CCC[C@H]1C(=O)NNC(N)=O [Goserelin] | 0 | 0 | 0 | 0 | 0 | 0 | 0 | 0 | 0 | 0 | 4.7 | 0
O=S(=O)(c1cccc2c(O)nccc12)N1CCCNCC1 [Hydroxyfasudil] | 0 | 0 | 0 | 0 | 0 | 0.1 | 0 | 0 | 0.4 | 0 | 0 | 0
NC(=O)NO [Hydroxyurea] | 1.1 | 0.1 | 5.1 | 0 | 2.8 | 1.7 | 8 | 8.2 | 3.3 | 0 | 2.3 | 2.9
COc1cc2c(cc1-c1c(C)noc1C)ncc1[nH]c(=O)n([C@H](C)c3ccccn3)c12 [I-BET151] | 11.9 | 0.6 | 9.5 | 9.2 | 8.2 | 1.9 | 11.3 | 13.8 | 4.5 | 6.9 | 12 | 7.1
O=C(O)c1ccc(O)c2ncccc12 [IOX-1] | 1.2 | 0 | 3 | 1.6 | 3.2 | 0 | 3.4 | 4.6 | 0 | 1.5 | 1.6 | 1
O=C(O)CNC(=O)c1c(O)c2ccccc2n(Cc2ccccc2)c1=O [IOX-2] | 0 | 0 | 0 | 0 | 0 | 0 | 0 | 0.1 | 0 | 0 | 0 | 0
C=CC(=O)N1CCC[C@@H](n2nc(-c3ccc(Oc4ccccc4)cc3)c3c(N)ncnc32)C1 [Ibrutinib] | 3 | 0.5 | 0 | 2.8 | 0 | 0 | 0 | 0 | 0 | 1.5 | 2.5 | 3.1
C#Cc1cccc(Nc2ncnc3cc4c(cc23)OCCOCCOCCO4)c1 [Icotinib] | 5.7 | 0 | 0 | 0.2 | 0 | 0.2 | 0 | 0 | 0.4 | 1.7 | 1.1 | 4.3
CC(=O)[C@]1(O)Cc2c(O)c3c(c(O)c2[C@@H](O[C@H]2C[C@H](N)[C@H](O)[C@H](C)O2)C1)C(=O)c1ccccc1C3=O [Idarubicin] | 12 | 4.8 | 10.3 | 5.1 | 10.7 | 6.1 | 13.7 | 14.2 | 7.1 | 6.3 | 11.7 | 7.7
COc1cc(C(=O)O)ccc1NC(=O)[C@@H]1N[C@@H](CC(C)(C)C)[C@](C#N)(c2ccc(Cl)cc2F)[C@H]1c1cccc(Cl)c1F [Idasanutlin] | 0 | 0 | 3.3 | 0 | 0 | 0 | 10.5 | 16 | 0 | 1.2 | 0 | 0.7
CC[C@H](Nc1ncnc2[nH]cnc12)c1nc2cccc(F)c2c(=O)n1-c1ccccc1 [Idelalisib] | 0.8 | 1.3 | 0.2 | 5.8 | 0 | 0.7 | 1 | 0.1 | 0.9 | 2.3 | 5.7 | 2.7
CC(C)Cn1cnc2c(N)nc3ccccc3c21 [Imiquimod] | 0 | 0 | 0.1 | 0 | 0 | 0 | 0 | 0 | 0.5 | 0 | 0 | 0
O=C(Nc1ccncc1)C(=O)c1cn(Cc2ccc(Cl)cc2)c2ccccc12 [Indibulin] | 7.2 | 1.8 | 6.4 | 7.2 | 5.9 | 2.5 | 18.3 | 20.1 | 6.8 | 5.5 | 7.9 | 5.7
CCN1CCN(c2ccc(Nc3cc(N(C)C(=O)Nc4c(Cl)c(OC)cc(OC)c4Cl)ncn3)cc2)CC1 [Infigratinib] | 0 | 0 | 0 | 0 | 0 | 0 | 0 | 0 | 0 | 0 | 0 | 0
CC(C)NC[C@@H](C(=O)N1CCN(c2ncnc3c2[C@H](C)C[C@H]3O)CC1)c1ccc(Cl)cc1 [Ipatasertib] | 1.9 | 0 | 0.5 | 2.6 | 0.5 | 0.1 | 4.4 | 2.7 | 0.1 | 0 | 1.6 | 3
CCC(C)n1ncn(-c2ccc(N3CCN(c4ccc(OCC5COC(Cn6cncn6)(c6ccc(Cl)cc6Cl)O5)cc4)CC3)cc2)c1=O (centres undefined) [Itraconazole] | 0 | 0.6 | 1.9 | 1.1 | 4.1 | 0.9 | 0 | 0 | 0.2 | 2.1 | 0.2 | 5.9
N#Cc1ccnc(N2C(=O)CC[C@H]2C(=O)N(c2cncc(F)c2)[C@H](C(=O)NC2CC(F)(F)C2)c2ccccc2Cl)c1 [Ivosidenib] | 0 | 0 | 0 | 0 | 0.3 | 0 | 0 | 0 | 0 | 0.1 | 0 | 0.6
C/C(=C\c1csc(C)n1)[C@@H]1C[C@@H]2O[C@]2(C)CCC[C@H](C)[C@H](O)[C@@H](C)C(=O)C(C)(C)[C@@H](O)CC(=O)N1 [Ixabepilone] | 4.6 | 1.3 | 5.2 | 2.6 | 2.4 | 2.9 | 2 | 1.6 | 2.7 | 2.1 | 2 | 4.5
CC(C)C[C@H](NC(=O)CNC(=O)c1cc(Cl)ccc1Cl)B(O)O [Ixazomib] | 11.6 | 10.5 | 9 | 2.7 | 5.5 | 16.4 | 7.8 | 7.4 | 10.6 | 6.5 | 7 | 10.4

From the supplement of paper PMC11616607
